The NIST ThermoML archive (doi:10.1016/j.jct.2015.11.023)

Tests used:
[1] = wn = mass fraction of the nth substance listed; details: for surface tension liquid-gas: Maximal bubble pressure; for mass density: 100 kPa, Liquid, Vibrating tube method
[2] = refractive index (Na D-line) (dimensionless); wn = mass fraction of the nth substance listed; details: 100 kPa, Liquid, Standard Abbe refractometry

CCCC[n+]1ccccc1.N#C[N-]C#N [1-butylpyridinium dicyanamide] + O
Details | mass density [kg/m3] | refractive index | surface tension liquid-gas [mN/m]
[1], 303.15 K, w2 = 0.00123 | 1065.65 | – | –
[1], 303.15 K, w2 = 0.00176 | – | – | 55.8
[1], 303.15 K, w2 = 0.00269 | 1065.52 | – | –
[1], 303.15 K, w2 = 0.0033 | – | – | 56.2
[1], 303.15 K, w2 = 0.00417 | 1065.37 | – | –
[1], 303.15 K, w2 = 0.00478 | – | – | 56.5
[1], 303.15 K, w2 = 0.00567 | 1065.24 | – | –
[1], 303.15 K, w2 = 0.00628 | – | – | 56.8
[1], 303.15 K, w2 = 0.00714 | 1065.12 | – | –
[1], 303.15 K, w2 = 0.0078 | – | – | 57.1
[1], 308.15 K, w2 = 0.00123 | 1062.58 | – | –
[1], 308.15 K, w2 = 0.00176 | – | – | 55.5
[1], 308.15 K, w2 = 0.00269 | 1062.45 | – | –
[1], 308.15 K, w2 = 0.0033 | – | – | 55.9
[1], 308.15 K, w2 = 0.00417 | 1062.32 | – | –
[1], 308.15 K, w2 = 0.00478 | – | – | 56.2
[1], 308.15 K, w2 = 0.00567 | 1062.16 | – | –
[1], 308.15 K, w2 = 0.00628 | – | – | 56.5
[1], 308.15 K, w2 = 0.00714 | 1062.04 | – | –
[1], 308.15 K, w2 = 0.0078 | – | – | 56.8
[1], 313.15 K, w2 = 0.00123 | 1059.54 | – | –
[1], 313.15 K, w2 = 0.00176 | – | – | 55.2
[1], 313.15 K, w2 = 0.00269 | 1059.41 | – | –
[1], 313.15 K, w2 = 0.0033 | – | – | 55.6
[1], 313.15 K, w2 = 0.00417 | 1059.23 | – | –
[1], 313.15 K, w2 = 0.00478 | – | – | 55.9
[1], 313.15 K, w2 = 0.00567 | 1059.11 | – | –
[1], 313.15 K, w2 = 0.00628 | – | – | 56.2
[1], 313.15 K, w2 = 0.00714 | 1058.97 | – | –
[1], 313.15 K, w2 = 0.0078 | – | – | 56.5
[1], 318.15 K, w2 = 0.00123 | 1056.51 | – | –
[1], 318.15 K, w2 = 0.00176 | – | – | 54.9
[1], 318.15 K, w2 = 0.00269 | 1056.38 | – | –
[1], 318.15 K, w2 = 0.0033 | – | – | 55.2
[1], 318.15 K, w2 = 0.00417 | 1056.24 | – | –
[1], 318.15 K, w2 = 0.00478 | – | – | 55.5
[1], 318.15 K, w2 = 0.00567 | 1056.07 | – | –
[1], 318.15 K, w2 = 0.00628 | – | – | 55.8
[1], 318.15 K, w2 = 0.00714 | 1055.94 | – | –
[1], 318.15 K, w2 = 0.0078 | – | – | 56.2
[1], 323.15 K, w2 = 0.00123 | 1053.5 | – | –
[1], 323.15 K, w2 = 0.00176 | – | – | 54.6
[1], 323.15 K, w2 = 0.00269 | 1053.36 | – | –
[1], 323.15 K, w2 = 0.0033 | – | – | 54.9
[1], 323.15 K, w2 = 0.00417 | 1053.23 | – | –
[1], 323.15 K, w2 = 0.00478 | – | – | 55.2
[1], 323.15 K, w2 = 0.00567 | 1053.04 | – | –
[1], 323.15 K, w2 = 0.00628 | – | – | 55.5
[1], 323.15 K, w2 = 0.00714 | 1052.91 | – | –
[1], 323.15 K, w2 = 0.0078 | – | – | 55.8
[1], 328.15 K, w2 = 0.00123 | 1050.5 | – | –
[1], 328.15 K, w2 = 0.00176 | – | – | 54.3
[1], 328.15 K, w2 = 0.00269 | 1050.36 | – | –
[1], 328.15 K, w2 = 0.0033 | – | – | 54.6
[1], 328.15 K, w2 = 0.00417 | 1050.22 | – | –
[1], 328.15 K, w2 = 0.00478 | – | – | 54.9
[1], 328.15 K, w2 = 0.00567 | 1050.05 | – | –
[1], 328.15 K, w2 = 0.00628 | – | – | 55.2
[1], 328.15 K, w2 = 0.00714 | 1049.92 | – | –
[1], 328.15 K, w2 = 0.0078 | – | – | 55.5
[1], 333.15 K, w2 = 0.00123 | 1047.53 | – | –
[1], 333.15 K, w2 = 0.00176 | – | – | 54
[1], 333.15 K, w2 = 0.00269 | 1047.4 | – | –
[1], 333.15 K, w2 = 0.0033 | – | – | 54.3
[1], 333.15 K, w2 = 0.00417 | 1047.21 | – | –
[1], 333.15 K, w2 = 0.00478 | – | – | 54.6
[1], 333.15 K, w2 = 0.00567 | 1047.07 | – | –
[1], 333.15 K, w2 = 0.00628 | – | – | 54.9
[1], 333.15 K, w2 = 0.00714 | 1046.94 | – | –
[1], 333.15 K, w2 = 0.0078 | – | – | 55.2
[1], 338.15 K, w2 = 0.00123 | 1044.55 | – | –
[1], 338.15 K, w2 = 0.00176 | – | – | 53.7
[1], 338.15 K, w2 = 0.00269 | 1044.42 | – | –
[1], 338.15 K, w2 = 0.0033 | – | – | 54
[1], 338.15 K, w2 = 0.00417 | 1044.27 | – | –
[1], 338.15 K, w2 = 0.00478 | – | – | 54.3
[1], 338.15 K, w2 = 0.00567 | 1044.09 | – | –
[1], 338.15 K, w2 = 0.00628 | – | – | 54.5
[1], 338.15 K, w2 = 0.00714 | 1043.94 | – | –
[1], 338.15 K, w2 = 0.0078 | – | – | 54.8
[2], 303.15 K, w2 = 0.00176 | – | 1.5323 | –
[2], 303.15 K, w2 = 0.00319 | – | 1.5321 | –
[2], 303.15 K, w2 = 0.00477 | – | 1.5319 | –
[2], 303.15 K, w2 = 0.00627 | – | 1.5317 | –
[2], 303.15 K, w2 = 0.0078 | – | 1.5315 | –
[2], 308.15 K, w2 = 0.00176 | – | 1.5306 | –
[2], 308.15 K, w2 = 0.00319 | – | 1.5303 | –
[2], 308.15 K, w2 = 0.00477 | – | 1.5301 | –
[2], 308.15 K, w2 = 0.00627 | – | 1.5298 | –
[2], 308.15 K, w2 = 0.0078 | – | 1.5296 | –
[2], 313.15 K, w2 = 0.00176 | – | 1.5283 | –
[2], 313.15 K, w2 = 0.00319 | – | 1.5281 | –
[2], 313.15 K, w2 = 0.00477 | – | 1.5279 | –
[2], 313.15 K, w2 = 0.00627 | – | 1.5277 | –
[2], 313.15 K, w2 = 0.0078 | – | 1.5275 | –
[2], 318.15 K, w2 = 0.00176 | – | 1.5267 | –
[2], 318.15 K, w2 = 0.00319 | – | 1.5265 | –
[2], 318.15 K, w2 = 0.00477 | – | 1.5262 | –
[2], 318.15 K, w2 = 0.00627 | – | 1.526 | –
[2], 318.15 K, w2 = 0.0078 | – | 1.5258 | –
[2], 323.15 K, w2 = 0.00176 | – | 1.525 | –
[2], 323.15 K, w2 = 0.00319 | – | 1.5248 | –
[2], 323.15 K, w2 = 0.00477 | – | 1.5245 | –
[2], 323.15 K, w2 = 0.00627 | – | 1.5243 | –
[2], 323.15 K, w2 = 0.0078 | – | 1.5241 | –
[2], 328.15 K, w2 = 0.00176 | – | 1.5234 | –
[2], 328.15 K, w2 = 0.00319 | – | 1.5232 | –
[2], 328.15 K, w2 = 0.00477 | – | 1.523 | –
[2], 328.15 K, w2 = 0.00627 | – | 1.5227 | –
[2], 328.15 K, w2 = 0.0078 | – | 1.5225 | –
[2], 333.15 K, w2 = 0.00176 | – | 1.5214 | –
[2], 333.15 K, w2 = 0.00319 | – | 1.5212 | –
[2], 333.15 K, w2 = 0.00477 | – | 1.5209 | –
[2], 333.15 K, w2 = 0.00627 | – | 1.5207 | –
[2], 333.15 K, w2 = 0.0078 | – | 1.5204 | –
[2], 338.15 K, w2 = 0.00176 | – | 1.5199 | –
[2], 338.15 K, w2 = 0.00319 | – | 1.5197 | –
[2], 338.15 K, w2 = 0.00477 | – | 1.5194 | –
[2], 338.15 K, w2 = 0.00627 | – | 1.5192 | –
[2], 338.15 K, w2 = 0.0078 | – | 1.5189 | –
